Test results published in ChEMBL document CHEMBL3046840, “Cyclobutane carboxamide inhibitors of fungal melanin: biosynthesis and their evaluation as fungicides” (Bioorg Med Chem, 2000).

Biological target: T1, Scytalone dehydratase (Magnaporthe oryzae (strain 70-15 / FGSC 8958) (Rice blast fungus)(Pyricularia oryzae), UniProt P56221)
T1 sequence (P56221 whole entry): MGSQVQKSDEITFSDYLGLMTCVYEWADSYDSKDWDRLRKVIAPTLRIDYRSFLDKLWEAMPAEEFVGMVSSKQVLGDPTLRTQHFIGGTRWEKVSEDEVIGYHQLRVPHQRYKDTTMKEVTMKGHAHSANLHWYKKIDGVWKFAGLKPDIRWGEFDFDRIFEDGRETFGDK

Row | Structure (SMILES) | Ki [nM]
1 | C[C@@H](NC(=O)[C@]1(C)C[C@@](Cl)(CCl)C1)c1ccc(Br)cc1 | 0.016
2 | C[C@@H](NC(=O)[C@]1(C(F)(F)F)C[C@@](C)(Cl)C1)c1ccc(Cl)cc1 | 0.067
3 | C[C@@H](NC(=O)[C@]1(C)C[C@@](C)(O)C1)c1ccc(Br)cc1 | 16
4 | C#C[C@]1(O)C[C@@](C)(C(=O)N[C@H](C)c2ccc(Br)cc2)C1 | 28
5 | C[C@H](COc1ccccc1F)NC(=O)[C@]1(C(F)(F)F)C[C@@](C)(Cl)C1 | 0.35
6 | CC[C@]1(C(=O)N[C@H](C)c2ccc(Br)cc2)C[C@@](C)(Cl)C1 | 0.021
7 | C[C@@H](NC(=O)[C@]1(C)C[C@](C)(Cl)C1)c1cccc2ccccc12 | 3.2
8 | C[C@@H](NC(=O)[C@]1(C)C[C@](Cl)(CCl)C1)c1ccc(Br)cc1 | 0.027
9 | C[C@@H](NC(=O)C1(Cl)CC(Cl)(Cl)C1)c1ccc(Br)cc1 | 0.45
10 | C[C@H](COc1cc(F)ccc1Cl)NC(=O)[C@]1(C)C[C@](C)(Cl)C1 | 0.057
11 | C[C@@H](NC(=O)[C@]1(C)C[C@](C)(Cl)C1)c1ccc(Br)cc1 | 0.1
12 | CC[C@]1(O)C[C@@](C)(C(=O)N[C@H](C)c2ccc(Br)cc2)C1 | 3.2
13 | C[C@@H](NC(=O)[C@]1(C(F)(F)F)C[C@@](C)(Cl)C1)c1ccc(Br)cc1 | 0.43
14 | C[C@@H](NC(=O)C1(C)CC(F)(F)C1)c1ccc(Br)cc1 | 6
15 | C[C@@H](NC(=O)[C@]1(C)C[C@](C)(Cl)C1)c1ccc(Cl)cc1Cl | 0.012
16 | C[C@@H](NC(=O)C(C#N)C(C)(C)C)c1ccc(Cl)cc1Cl (stereo not given in full) [DICLOCYMET] | 0.036
17 | C[C@H](COc1cc(F)ccc1F)NC(=O)[C@]1(C)C[C@](C)(Cl)C1 | 0.42
18 | C[C@@H](NC(=O)[C@]1(C)C[C@](C)(Cl)C1)c1ccc2ccccc2c1 | 0.016
19 | C[C@@H](NC(=O)C1(Cl)CC(C)(Cl)C1)c1ccc(Br)cc1 (mixture of isomers) | 0.31
20 | C[C@@H](NC(=O)C1CCC1)c1ccc(Br)cc1 | 520
21 | CC(C)C(C)(C#N)NC(=O)[C@H](C)Oc1ccc(Cl)cc1Cl (stereo not given in full) | 0.13
22 | C[C@@H](NC(=O)[C@]1(C)C[C@](C)(O)C1)c1ccc(Br)cc1 | 480
23 | C[C@@H](NC(=O)[C@H]1C[C@@](C)(Cl)C1)c1ccc(Br)cc1 | 44
24 | COc1cc(Br)ccc1C(C)NC(=O)[C@]1(C)C[C@](C)(Cl)C1 (mixture of isomers) | 0.03
25 | C[C@@H](NC(=O)[C@]1(C(F)(F)F)C[C@@](C)(Cl)C1)c1ccc(Cl)cc1Cl | 0.011
